Literature values, collected in US10632043B2, “Premix formulation for parenteral use and packaging thereof” (Aurobindo Pharma Ltd, priority 2015, dated 2020).
Where two headings read alike, the source gives them in different places.

Settings: for time stable: diluted to 4 mg/mL in 0.9% sodium chloride injection, polypropylene (PP) syringes

Cc1cccc([C@H](C)c2cnc[nH]2)c1C [dexmedetomidine]
loss of drug potency (PP syringe, over 48 hours): about 5%
time stable (5° C.): 14 days
time stable (20-25° C.): 2 days
loss of drug concentration (syringes at room temperature, over 48 hours): < 10%
loss of drug concentration (syringes, refrigerated, over 14 days): < 5%
